Drawing on patent US12435080B2, “sGC stimulators” (Tisento Therapeutics Inc., priority 2016, dated 2025), this text covers EC50, concentration and Kp uu for 21 compounds.

Data set [1] addresses T1, sGC enzyme (Homo sapiens, UniProt Q02108+Q02153).
T1 construct: incorporated into these cells detect cGMP formed by the compounds stimulating the sGC enzyme; host or cells: HEK293 cells stably expressing GloSensor 40F cGMP biosensor
T1 sequence (Q02153 1-619): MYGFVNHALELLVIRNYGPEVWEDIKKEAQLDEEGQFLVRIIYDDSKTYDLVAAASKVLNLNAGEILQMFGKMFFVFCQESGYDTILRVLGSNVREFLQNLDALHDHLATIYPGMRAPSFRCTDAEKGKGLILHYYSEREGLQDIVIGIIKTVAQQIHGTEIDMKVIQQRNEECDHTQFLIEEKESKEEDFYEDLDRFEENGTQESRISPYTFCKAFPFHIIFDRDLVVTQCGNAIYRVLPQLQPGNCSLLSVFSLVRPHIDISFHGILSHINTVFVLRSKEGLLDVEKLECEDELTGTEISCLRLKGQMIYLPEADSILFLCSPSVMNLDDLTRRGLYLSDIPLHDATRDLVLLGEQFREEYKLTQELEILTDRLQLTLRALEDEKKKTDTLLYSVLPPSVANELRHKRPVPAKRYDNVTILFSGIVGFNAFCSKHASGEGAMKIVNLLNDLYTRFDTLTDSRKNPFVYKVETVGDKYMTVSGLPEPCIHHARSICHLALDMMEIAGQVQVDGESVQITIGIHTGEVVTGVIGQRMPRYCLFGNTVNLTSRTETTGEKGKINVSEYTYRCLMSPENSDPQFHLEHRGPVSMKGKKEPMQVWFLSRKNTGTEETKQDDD
T1 sequence (Q02108 1-690): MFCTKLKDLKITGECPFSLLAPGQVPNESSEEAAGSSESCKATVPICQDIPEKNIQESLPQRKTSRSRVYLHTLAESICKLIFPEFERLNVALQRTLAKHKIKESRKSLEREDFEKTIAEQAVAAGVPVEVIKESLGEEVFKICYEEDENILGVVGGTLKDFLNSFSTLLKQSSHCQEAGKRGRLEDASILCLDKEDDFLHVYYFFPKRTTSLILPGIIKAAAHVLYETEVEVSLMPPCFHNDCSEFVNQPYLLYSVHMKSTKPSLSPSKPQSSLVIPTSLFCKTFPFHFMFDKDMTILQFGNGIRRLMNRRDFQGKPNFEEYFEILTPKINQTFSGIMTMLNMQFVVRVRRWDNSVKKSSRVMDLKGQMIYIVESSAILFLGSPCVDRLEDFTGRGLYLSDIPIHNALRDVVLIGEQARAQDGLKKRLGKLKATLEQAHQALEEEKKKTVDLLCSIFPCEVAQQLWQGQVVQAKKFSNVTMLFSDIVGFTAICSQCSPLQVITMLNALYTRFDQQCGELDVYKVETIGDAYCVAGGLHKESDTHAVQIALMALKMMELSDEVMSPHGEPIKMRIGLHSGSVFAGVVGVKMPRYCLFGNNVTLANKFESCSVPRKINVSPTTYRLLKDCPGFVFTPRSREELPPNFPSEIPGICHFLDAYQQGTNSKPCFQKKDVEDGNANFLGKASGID
Briefly: cGMP GloSensor cell-based assay, 384-well format. The settings on record: 10 μM DETA-NONOate, normalized to 30 μM Compound Y. In a few lines: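 HEK293 cells expressing GloSensor 40F cGMP luciferase biosensor, preloaded with 2 mM GloSensor substrate for 90 min at 25 °C. Endpoint luminescence read after 55 min compound incubation at room temperature.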

Data set [2] can be described thus: Rat cerebrospinal fluid (CSF) pharmacokinetic properties. It counts as in vivo. The conditions noted are these: for concentration at 1 h: CSF, male Sprague-Dawley rats, PO 10 mg/kg in PEG400, 1 h post-dosing, read-out: CSF Conc. (nM @ 1 h); for Kp uu at 1 h: male, Sprague-Dawley, CSF and plasma (unbound), unbound CSF/unbound plasma ratio, rats, PO 10 mg/kg. Here is the method:
PK in rats was determined following oral dosing. For the oral (PO) experiments, a group of 6 male Sprague-Dawley rats with an indwelling catheter placed in the cisterna magna were used. The PO group was dosed with 3 or 10 mg/kg of a compound formulated as a solution in PEG400. PO doses were administered by oral gavage and delivered to the stomach using a syringe and gavage tube. Following oral dosage administration, the gavage tube was flushed with approximately 0.5 mL of water to ensure complete delivery of the full dose.
Plasma and CSF samples were collected as follows: samples of CSF and blood were collected at 1 hour and 2 hours post-dosing. CSF samples (0.05 mL) were collected through the intracisternal catheter. Blood samples (0.25 mL) were collected through retro-orbital sampling. These samples were kept on ice until processed for plasma. Blood samples were centrifuged at 3200 rpm for 5 minutes at approximately 5° C. within 1 hour of collection. Plasma was directly transferred to a 96-well plate tube (0.125 mL). Plug caps were placed on the tubes and the tubes frozen at approximately −70° C. and stored until analysis.
Plasma was collected and analyzed for the presence of compound.
The compound in question and the internal standard were extracted from plasma and CSF by precipitation. Samples were analyzed using liquid chromatography (LC) with tandem mass spectrometric detection (MS/MS) using electrospray ionization. The standard curve range was from 1 to 1000 ng/mL. Results of the compounds described herein in this assay are illustrated in Tables 4A (for compounds in Table IA) and 4B (for compounds in Table IB) below.
Kp,uu is defined as the concentration ratio of unbound drug in CSF to unbound drug in plasma. Unbound drug in plasma (or free plasma concentration) is calculated by multiplying the total plasma concentration by the unbound fraction as determined by plasma protein binding. The CSF concentration is then divided by the free plasma concentration to determine the Kp,uu. (See e.g., Di et al., J. Med. Chem., 56, 2-12 (2013))

The mark [3] stands for this setting: HEK293 cells expressing GloSensor 40F cGMP, compounds in Table IA, read-out: Glo-sensor AbsEC50.
Where [4] appears, read: HEK293 cells expressing GloSensor 40F cGMP, compounds in Table IB, read-out: Glo-sensor Abs EC50.

Like-named read-outs stand apart in the source and are kept apart here.

For `Fc1ccccc1Cn1nc(-c2nc(C(F)F)n[nH]2)c2cccnc21` [Compound I-20, 3-(3-(Difluoromethyl)-1H-1,2,4-triazol-5-yl)-1-(2-fluorobenzyl)-1H-pyrazolo[3,4-b]pyridine], the EC50 in data set [1] (setting [3]) was under 100 nM. In addition, in data set [2] (compounds in Table IA), the concentration at 1 h was 207 nM and the Kp uu at 1 h worked out at 3.37.
Turning to `N#Cc1n[nH]c(-c2nn(Cc3cccc(F)c3F)c3ncccc23)n1` [Compound I-92, 5-(1-(2,3-Difluorobenzyl)-1H-pyrazolo[3,4-b]pyridin-3-yl)-1H-1,2,4-triazole-3-carbonitrile], the EC50 in data set [1] (setting [3]) was under 100 nM. For the same compound, in data set [2] (compounds in Table IA), the concentration at 1 h was found to be 10.8 nM and the Kp uu at 1 h came to 0.52.
As to `Cc1n[nH]c(-c2nc(Cc3cncnc3)c3ccccn23)n1` [Compound I-5, 3-(3-methyl-1H-1,2,4-triazol-5-yl)-1-(pyrimidin-5-ylmethyl)imidazo[1,5-a]pyridine], the EC50 in data set [1] (setting [4]) lay within 100 to 1000 nM. For the same compound, in data set [2] (compounds in Table IB), the concentration at 1 h came out at 30.4 nM and the Kp uu at 1 h is 1.08.
With `Fc1ccccc1Cn1nc(-c2ncn[nH]2)c2cccnc21` [Compound I-25], the EC50 in data set [1] (Glo-sensor AbsEC50, HEK293 cells expressing GloSensor 40F cGMP, compounds in Table IA) lay in the range of 100 to 1000 nM.
On to `FCc1n[nH]c(-c2nn(Cc3ccccc3F)c3ncccc23)n1` [Compound I-58, 1-(2-Fluorobenzyl)-3-(3-(fluoromethyl)-1H-1,2,4-triazol-5-yl)-1H-pyrazolo[3,4-b]pyridine], for which the EC50 in data set [1] (setting [3]) was under 100 nM.
Regarding `Fc1cccc(Cn2nc(-c3nc(C(F)F)n[nH]3)c3cccnc32)c1F` [Compound I-67, 1-(2,3-Difluorobenzyl)-3-(3-(difluoromethyl)-1H-1,2,4-triazol-5-yl)-1H-pyrazolo[3,4-b]pyridine], the EC50 in data set [1] (setting [3]) was under 100 nM.
On the same count and under the same terms, the value for `CC(=O)Nc1n[nH]c(-c2nn(Cc3ccccc3F)c3ncccc23)n1` [Compound I-103] was 100 to 1000 nM; that for `Fc1ccccc1Cn1nc(-c2nc(Cl)n[nH]2)c2cccnc21` [Compound I-47, 3-(3-Chloro-1H-1,2,4-triazol-5-yl)-1-(2-fluorobenzyl)-1H-pyrazolo[3,4-b]pyridine] was under 100 nM; that for `Fc1ccccc1Cn1nc(-c2nc(C(F)(F)Cl)n[nH]2)c2cccnc21` [Compound I-65, 3-(3-(Chlorodifluoromethyl)-1H-1,2,4-triazol-5-yl)-1-(2-fluorobenzyl)-1H-pyrazolo[3,4-b]pyridine] was under 100 nM.
Still for that read-out and setting: the value for `Fc1ccccc1Cn1nc(-c2nc(C3CN(CC(F)(F)F)C3)n[nH]2)c2cccnc21` [Compound I-95, 1-(2-Fluorobenzyl)-3-(3-(1-(2,2,2-trifluoroethyl)azetidin-3-yl)-1H-1,2,4-triazol-5-yl)-1H-pyrazolo[3,4-b]pyridine] was 100 to 1000 nM.
As for `Cc1ncc(Cc2nc(-c3nc(C(F)(F)F)n[nH]3)n3cc(Cl)ccc23)cn1` [Compound I-34, 6-Chloro-1-((2-methylpyrimidin-5-yl)methyl)-3-(3-(trifluoromethyl)-1H-1,2,4-triazol-5-yl)imidazo[1,5-a]pyridine], the EC50 in data set [1] (setting [4]) is over 1000 nM.
In the case of `NC1(c2n[nH]c(-c3nn(Cc4ccccc4F)c4ncccc34)n2)COC1` [Compound I-79, 3-(5-(1-(2-fluorobenzyl)-1H-pyrazolo[3,4-b]pyridin-3-yl)-1H-1,2,4-triazol-3-yl)oxetan-3-amine], the EC50 in data set [1] (setting [3]) is over 1000 nM.
Same read-out and setting: the value for `[2H]C([2H])([2H])c1n[nH]c(-c2nn(Cc3ccccc3F)c3ncccc23)n1` [Compound I-91, 1-(2-Fluorobenzyl)-3-(3-(methyl-d3)-1H-1,2,4-triazol-5-yl)-1H-pyrazolo[3,4-b]pyridine] was under 100 nM; that for `O=C1CCC(=O)N1Cc1n[nH]c(-c2nn(Cc3ccccc3F)c3ncccc23)n1` [Compound I-125, 1-((5-(1-(2-fluorobenzyl)-1H-pyrazolo[3,4-b]pyridin-3-yl)-1H-1,2,4-triazol-3-yl)methyl)pyrrolidine-2,5-dione] was 100 to 1000 nM.
For the compound `CC(O)c1n[nH]c(-c2nn(Cc3ccccc3F)c3ncccc23)n1` (stereo not drawn) [Compound I-107, 1-(5-(1-(2-Fluorobenzyl)-1H-pyrazolo[3,4-b]pyridin-3-yl)-1H-1,2,4-triazol-3-yl)ethanol], the EC50 in data set [1] (setting [3]) was under 100 nM.
For `NC(=O)c1n[nH]c(-c2nn(Cc3ccccc3F)c3ncccc23)n1` [Compound I-40, 5-(1-(2-fluorobenzyl)-1H-pyrazolo[3,4-b]pyridin-3-yl)-1H-1,2,4-triazole-3-carboxamide], the EC50 in data set [1] (setting [3]) fell in the range of 100 to 1000 nM.
With `Cc1ccc2c(-c3nc(C(F)(F)F)n[nH]3)nn(Cc3cccc(F)c3F)c2n1` [Compound I-85, 1-(2,3-Difluorobenzyl)-6-methyl-3-(3-(trifluoromethyl)-1H-1,2,4-triazol-5-yl)-1H-pyrazolo[3,4-b]pyridine], the EC50 in data set [1] (setting [3]) is under 100 nM.
On the same count and under the same terms, the value for `Fc1ccccc1Cn1nc(-c2nc(CCCCl)n[nH]2)c2cccnc21` [Compound I-69, 3-(3-(3-chloropropyl)-1H-1,2,4-triazol-5-yl)-1-(2-fluorobenzyl)-1H-pyrazolo[3,4-b]pyridine] was 100 to 1000 nM.
Same read-out and setting: the value for `OC1(c2n[nH]c(-c3nn(Cc4ccccc4F)c4ncccc34)n2)CC1` [Compound I-104, 1-(5-(1-(2-Fluorobenzyl)-1H-pyrazolo[3,4-b]pyridin-3-yl)-1H-1,2,4-triazol-3-yl)cyclopropanol] was under 100 nM; that for `Fc1ccccc1Cn1nc(-c2nc(NCCC(F)(F)F)n[nH]2)c2cccnc21` [Compound I-89] was under 100 nM.
On the same count and under the same terms, the value for `Fc1ccccc1Cn1nc(-c2nc(C3CCOCC3)n[nH]2)c2cccnc21` [Compound I-78, 1-(2-Fluorobenzyl)-3-(3-(tetrahydro-2H-pyran-4-yl)-1H-1,2,4-triazol-5-yl)-1H-pyrazolo[3,4-b]pyridine] was over 1000 nM.
